Results taken from ChEMBL document CHEMBL2040737, “Synthesis and biological evaluation of novel 2-(2-arylmethylene)hydrazinyl-4-aminoquinazoline derivatives as potent antitumor agents” (Eur J Med Chem, 2012).

Tests used:
NCI-H460 = assay: Cytotoxicity against human H460 cells after 72 hrs by MTT assay; type: functional, cell-based; conditions: NCI-H460, 72 h
HT-29 [1] = assay: Cytotoxicity against human HT-29 cells after 72 hrs by MTT assay; type: functional, cell-based; conditions: HT-29, 72 h
HepG2 [2] = assay: Cytotoxicity against human HepG2 cells after 72 hrs by MTT assay; type: functional, cell-based; conditions: HepG2, 72 h
SGC-7901 = assay: Cytotoxicity against human SGC7901 cells after 72 hrs by MTT assay; type: functional, cell-based; conditions: SGC-7901, 72 h
HT-29 [3] = assay: Ratio of iressa IC50 to compound IC50 for human HT-29 cells; type: functional
HepG2 [4] = assay: Ratio of iressa IC50 to compound IC50 for human HepG2 cells; type: functional

Structure (SMILES)	IC50 (NCI-H460) [nM]	IC50 (HT-29 [1]) [nM]	IC50 (HepG2 [2]) [nM]	IC50 (SGC-7901) [nM]	Ratio IC50 (HT-29 [3])	Ratio IC50 (HepG2 [4])
CN(C)CCNc1nc(N/N=C/c2ccc(Cl)cc2)nc2ccccc12	3250	210	370	970		
CN(C)CCNc1nc(N/N=C/c2ccc(F)cc2)nc2ccccc12	5680	1530	1820	4100		
CN(C)CCNc1nc(N/N=C/c2ccc(F)cc2Cl)nc2ccccc12	1760	330	680	1680		
CN(C)CCCNc1nc(N/N=C/c2ccc(Cl)cc2)nc2ccccc12	1490	270	550	1730		
CN(C)CCCNc1nc(N/N=C/c2ccc(F)cc2)nc2ccccc12	4090	870	880	2760		
CN(C)CCCNc1nc(N/N=C/c2ccc(F)cc2Cl)nc2ccccc12	1800	1150	670	1660		
Clc1ccc(/C=N/Nc2nc(NCCCN3CCOCC3)c3ccccc3n2)cc1	4000	610	1740	3550		
Fc1ccc(/C=N/Nc2nc(NCCCN3CCOCC3)c3ccccc3n2)cc1	5870	2190	4020	6770		
Oc1ccccc1/C=N/Nc1nc(NCCCN2CCOCC2)c2ccccc2n1	2950	2080	3830	3210		
Oc1cccc(/C=N/Nc2nc(NCCCN3CCOCC3)c3ccccc3n2)c1	4670	6320	6490	4900		
CN1CCC(Nc2nc(N/N=C/c3ccc(Cl)cc3)nc3ccccc23)CC1	210	23	170	1320		
CN1CCC(Nc2nc(N/N=C/c3ccc(F)cc3)nc3ccccc23)CC1	2640	1410	1950	1760		
CN1CCC(Nc2nc(N/N=C/c3ccc(F)cc3Cl)nc3ccccc23)CC1	610	270	1120	1630		
COc1ccc(OC)c(/C=N/Nc2nc(NC3CCN(C)CC3)c3ccccc3n2)c1	4760	2830	7170	4240		
CN(C)CCNc1nc(N/N=C/c2nccn2Cc2ccccc2)nc2ccccc12	9650	2620	9600	4300		
Cc1ccc(Cn2ccnc2/C=N/Nc2nc(NCCN(C)C)c3ccccc3n2)cc1	4200	1410	2980	2750		

Structure (SMILES)	IC50 (NCI-H460) [nM]	IC50 (HT-29 [1]) [nM]	IC50 (HepG2 [2]) [nM]	IC50 (SGC-7901) [nM]	Ratio IC50 (HT-29 [3])	Ratio IC50 (HepG2 [4])
CN(C)CCNc1nc(N/N=C/c2nccn2Cc2ccc(F)cc2)nc2ccccc12	1050	930	3060	2420		
CN(C)CCNc1nc(N/N=C/c2nccn2Cc2cccc(Cl)c2Cl)nc2ccccc12	870	260	670	1850		
CN(C)CCCNc1nc(N/N=C/c2nccn2Cc2ccccc2)nc2ccccc12	4670	1980	4040	2130		
Cc1ccc(Cn2ccnc2/C=N/Nc2nc(NCCCN(C)C)c3ccccc3n2)cc1	1690	2440	3680	2600		
CN(C)CCCNc1nc(N/N=C/c2nccn2Cc2ccc(F)cc2)nc2ccccc12	640	630	2860	3510		
CN(C)CCCNc1nc(N/N=C/c2nccn2Cc2cccc(Cl)c2Cl)nc2ccccc12	430	360	850	1170		
C(=N\Nc1nc(NCCCN2CCOCC2)c2ccccc2n1)/c1nccn1Cc1ccccc1	4030	2840	4800	3960		
Cc1ccc(Cn2ccnc2/C=N/Nc2nc(NCCCN3CCOCC3)c3ccccc3n2)cc1	3760	3160	3190	3020		
Fc1ccc(Cn2ccnc2/C=N/Nc2nc(NCCCN3CCOCC3)c3ccccc3n2)cc1	2470	930	2210	1920		
Clc1cccc(Cn2ccnc2/C=N/Nc2nc(NCCCN3CCOCC3)c3ccccc3n2)c1Cl	910	720	1250	2660		
CN1CCC(Nc2nc(N/N=C/c3nccn3Cc3ccccc3)nc3ccccc23)CC1	1030	750	1420	1380		
Cc1ccc(Cn2ccnc2/C=N/Nc2nc(NC3CCN(C)CC3)c3ccccc3n2)cc1	770	200	1230	960		
CN1CCC(Nc2nc(N/N=C/c3nccn3Cc3ccc(F)cc3)nc3ccccc23)CC1	210	650	980	780		
CN1CCC(Nc2nc(N/N=C/c3nccn3Cc3cccc(Cl)c3Cl)nc3ccccc23)CC1	31	15	530	580	224	12
Cc1ccc(-c2cc(NCCN(C)C)c3ccccc3n2)cc1	3520	1350	2060	4920		
